Where two headings read alike, the source gives them in different places.
Key:
[1] = Pituitary tissue distribution in SD rats after intragastric administration; format: in vivo; design: Plasma concentration / Pituitary concentration: unit not given here; details: i.g 12 mg/kg; for Concentration in the pituitary relative to Relugolix: vs Relugolix; for Concentration in the pituitary relative to compound 2A: vs compound 2A
Procedure: (§1) Instrument: water purification equipment, Millipore; electronic balance, METTLER TOLEDO; high-speed benchtop centrifuge, Thermo; water bath thermostatic oscillator, Shanghai Yiheng Technical Co., Ltd.; vortex oscillator, Thermo; LC-MS/MS, AB SCIEX.
(§2) Method: all compounds were formulated in DMSO and 20% solutol. In the pharmacokinetic experiment, the administration dose for the intravenous group (i.v) was 1 mg/kg, and the administration dose for the intragastric group (i.g) was 12 mg/kg, each group containing 3 rats. Blood was collected from the orbit of the rats before (0 h) the administration and at set time points after administration. In the tissue distribution experiment, the rats were subjected to intragastric administration at a dose of 12 mg/kg. […] The […] in a heparinized EP tube and centrifuged at 13,500 rpm for 10 min to isolate the plasma. The pituitary was homogenized with water in a certain proportion. The plasma and pituitary homogenates were pre-treated and then analyzed by LC-MS/MS to determine the concentration of the test substances in the plasma and the pituitary. The plasma drug concentration data were processed in a non-compartmental model using WinNonlin™ Version 6.3 (Pharsight, Mountain View, CA) pharmacokinetic software.

[2] = Caco-2 two-way permeability and efflux; format: in vitro ADME; details: human; for efflux ratio at 120 min: Caco-2
Procedure: (§3) Instrument: water purification equipment, ELGA LabWate; biosafety cabinet, NUAIRE; thermostatic CO2 incubator, Thermo; microplate reader, PerkinElmer; LC-MS/MS, AB SCIEX.
(§4) Method: A Caco-2 monolayer cell model was used to determine the two-way permeability of the test substances and evaluate whether the test substances were transported by the efflux of a transporter. In the experiment, Caco-2 cells were seeded into a 96-well cell culture plate and cultured for 28 consecutive days for transport assay. The test substances were each administered on two sides. After being incubated for 120 min, the samples at the apical end A, at the basal end B, and with cell lysis were collected and quantitatively determined for the content of the test substances by using a liquid chromatography-tandem mass spectrometry (LC/MS/MS) method. The apparent permeability coefficient (Papp) in the direction from the apical end to the basal end (A-B) and in the direction from the basal end to the apical end (B-A) and the efflux ratio were calculated from the concentrations of the test substances.

[3] = Pharmacokinetics in SD rats (i.v. and i.g.); format: in vivo; details: for bioavailability: i.g 12 mg/kg vs i.v 1 mg/kg, read-out: F (absolute bioavailability)
Procedure: as §1, §2

human GnRHR [4] = target: T1, human GnRHR (Homo sapiens (Human), UniProt P30968); test: In vitro antagonistic activity screening (FLIPR calcium fluorescence, Leuprolide acetate stimulation); format: cell-based; details: HEK293 cells stably expressing human GnRHR
Procedure: Cell: HEK293 cells stably expressing human GnRHR (WuXi AppTec (Shanghai) Co., Ltd.) Equipment: 384-well plate, Greiner; Vi-cell XR Cell Viability Analyzer, Beckman Coulter; incubator, Thermo.
Method: HEK293 cells stably expressing human GnRHR were seeded into a 384-well plate at a density of 20,000/well. Fluo-4 Direct™ No-wash Loading Buffer (Invitrogen) was added to each well the next day, and then the plate was put back into an incubator, incubated at 37° C. for 50 min, and then incubated at room temperature for 10 min. Test compounds were formulated in DMSO. […] Fluorescence values were determined using a FLIPR Tetra high throughput real-time fluorescence detection and assay system. Then 10 μL of Leuprolide acetate was added, and fluorescence values were determined. IC50 and IC90 of the compounds were calculated using Prism.

[5] = target: human hERG potassium channel (Homo sapiens (Human), UniProt Q12809); test: hERG test (QPatch automated patch clamp, CHO cells); format: cell-based; details: for Inhibitory activity on the human hERG potassium channel compared with Relugolix: in words, vs Relugolix
Procedure: Cell: CHO cells stably expressing a human hERG potassium channel (WuXi AppTec (Shanghai) Co., Ltd.) Reagent: physiological solution (pH=7.4): 140 mM NaCl, 4 mM KCl, 2 mM CaCl2), 1 mM MgCl2, 5 mM Glucose, 10 mM HEPES, Osmolarity: about 298 mOsm; external solution (pH=7.4): 80 mM NaCl, 4 mM KCl, 2 mM CaCl2), 1 mM MgCl2, 5 mM Glucose, 60 mM NMDG, 10 mM HEPES, Osmolarity: about 289 mOsm; internal solution (pH=7.4): 10 mM NaCl, 10 mM KCl, 110 mM KF, 10 mM HEPES, EGTA: […], Osmolarity: about 280 mOsm.
Equipment: QPatch high-throughput automated patch clamp system, Sophion.
Method: CHO cells stably expressing a human hERG potassium channel were digested with TrypLE and resuspended in a physiological solution for later use. The single-cell high-impedance sealing and whole-cell mode formation processes were automatically completed by Qpatch. The clamping voltage for the cells was −80 mV. Then a voltage of −50 mV was applied for 80 ms to subtract (current) leakage, and a voltage of +20 mV was applied for 4800 ms to open the hERG channel. The voltage was then reduced to −50 mV and maintained for 5000 ms. This process was used for data collection and analysis. Finally, the voltage was returned to the clamping voltage (−80 mV, 1000 ms). This process was repeated every 20,000 ms. 40 μL of solvent control (external solution+DMSO) was added first, and the test was performed for […] to collect baseline data. Then, 40 μL of each of the test compounds was added at various concentrations, and the test was performed for no less than […]. The compounds were each dissolved in DMSO, with test concentrations being 0.30 μM, 1.00 μM, 3.00 μM, 10.00 μM, and 30.00 μM. The IC50 data for the hERG test were obtained by analyzing using DataControl, Excel2013, and Prism.

human GnRHR [6] = target: T1, human GnRHR; test: In vitro binding screening ([125I][D-Trp6]-LH-RH displacement, Chem-1 cell membranes)
Procedure: [D-Trp6]-LH-RH, PerkinElmer; [D-Trp6]-LH-RH, Abcam.
Equipment: MicroBeta2 LumiJET system, PerkinElmer.
Method: Chem-1 cell membranes stably expressing human GnRHR were resuspended in HEPES at pH 7.4. […] [D-Trp6]-LH-RH was used in the non-specific binding assay. Cell membranes were collected by filtration under vacuum and washed before liquid scintillation. The binding IC50 and IC90 of the compounds were calculated using Prism.

Caco-2 cells = test: Caco-2 two-way permeability and efflux; format: in vitro ADME
Procedure: as §3, §4

[7] = Metabolic stability in human liver microsomes; format: in vitro ADME
Procedure: (§5) Liver Microsome: Rat Liver Microsome and Human Liver Microsome Reagent: NADPH, Roche Diagnostics Gmbh; ACN, Merck Chemical; Tolbutamide, Sigma. Instrument: water purification equipment, Millipore; electronic balance, METTLER TOLEDO; high-speed benchtop centrifuge, Thermo; water bath thermostatic oscillator, Shanghai Yiheng Technical Co., Ltd.; vortex oscillator, Thermo; LC-MS/MS, AB SCIEX. Method: the metabolic stability of test substances was evaluated by using SD rat and human liver microsomes. The test substances were incubated with liver microsomes from different species by using NADPH under a water bath at 37° C. A cold acetonitrile solution containing a Tolbutamide internal standard substance was added at a specified time point to terminate the reaction. The samples were pre-treated and then subjected to semi-quantitative analysis by LC-MS/MS. The retention times of the analytes and Tolbutamide internal standard, the acquisition of chromatograms, and the integration of chromatograms were processed using software Analyst (A Sciex, Framingham, Massachusetts, USA). The in vitro elimination rate constant Ke of the samples was obtained by converting the ratio of the peak area of the samples to the peak area of the internal standard into the residual percentage, and the in vitro clearance rate and the half-life of the test samples were calculated.

[8] = Metabolic stability in rat liver microsomes; format: in vitro ADME, SD rat; details: Rat liver microsomes
Procedure: as §5

[9] = male, Sprague-Dawley (SD), rat, plasma, iv, i.v 1 mg/kg
[10] = male, Sprague-Dawley (SD), rat, plasma, po, i.g 12 mg/kg
[11] = intragastric group, vs Relugolix
[12] = intragastric group, vs compound 2A

T1 sequence (P30968 whole entry): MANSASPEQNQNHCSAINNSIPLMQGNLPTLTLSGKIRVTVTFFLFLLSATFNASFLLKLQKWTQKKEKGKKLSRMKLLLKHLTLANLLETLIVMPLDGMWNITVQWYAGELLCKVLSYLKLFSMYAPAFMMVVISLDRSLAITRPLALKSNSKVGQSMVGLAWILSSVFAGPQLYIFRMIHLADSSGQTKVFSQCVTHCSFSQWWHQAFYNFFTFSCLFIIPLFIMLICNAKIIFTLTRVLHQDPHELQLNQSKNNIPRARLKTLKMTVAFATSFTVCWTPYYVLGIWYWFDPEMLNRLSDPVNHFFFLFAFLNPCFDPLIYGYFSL
Sequence of human hERG potassium channel (Q12809 whole entry): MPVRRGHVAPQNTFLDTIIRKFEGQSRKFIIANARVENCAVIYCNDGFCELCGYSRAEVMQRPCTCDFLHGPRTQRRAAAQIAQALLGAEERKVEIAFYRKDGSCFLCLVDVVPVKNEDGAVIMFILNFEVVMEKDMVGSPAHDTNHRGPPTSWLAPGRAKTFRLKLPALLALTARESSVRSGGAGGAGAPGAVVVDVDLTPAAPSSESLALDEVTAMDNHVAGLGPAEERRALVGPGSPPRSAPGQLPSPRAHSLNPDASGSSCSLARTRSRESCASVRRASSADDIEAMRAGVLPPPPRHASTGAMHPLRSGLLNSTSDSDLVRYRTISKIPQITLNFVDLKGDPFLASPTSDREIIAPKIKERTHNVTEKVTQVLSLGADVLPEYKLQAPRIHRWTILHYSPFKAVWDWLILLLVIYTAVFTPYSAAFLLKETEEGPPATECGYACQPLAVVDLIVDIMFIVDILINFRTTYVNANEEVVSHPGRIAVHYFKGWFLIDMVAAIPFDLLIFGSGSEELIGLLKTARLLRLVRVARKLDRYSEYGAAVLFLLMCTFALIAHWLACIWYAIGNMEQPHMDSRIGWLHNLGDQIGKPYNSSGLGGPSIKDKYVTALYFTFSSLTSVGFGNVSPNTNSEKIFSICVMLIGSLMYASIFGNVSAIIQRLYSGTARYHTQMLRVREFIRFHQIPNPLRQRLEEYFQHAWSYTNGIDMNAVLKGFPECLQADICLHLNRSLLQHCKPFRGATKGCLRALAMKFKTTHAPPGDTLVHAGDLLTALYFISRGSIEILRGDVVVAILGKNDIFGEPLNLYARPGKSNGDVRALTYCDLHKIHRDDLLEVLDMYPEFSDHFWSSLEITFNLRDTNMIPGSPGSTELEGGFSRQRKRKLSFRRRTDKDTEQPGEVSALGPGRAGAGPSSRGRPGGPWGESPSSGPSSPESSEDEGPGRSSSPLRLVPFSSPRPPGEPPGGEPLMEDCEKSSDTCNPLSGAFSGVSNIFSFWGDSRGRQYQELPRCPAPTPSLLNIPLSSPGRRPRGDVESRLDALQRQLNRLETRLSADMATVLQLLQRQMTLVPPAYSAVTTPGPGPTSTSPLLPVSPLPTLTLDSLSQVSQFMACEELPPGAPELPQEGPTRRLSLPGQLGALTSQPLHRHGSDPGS

SMILES: CCNC(=O)Nc1ccc(-c2sc3c(c2CN(C)C)c(=O)n(-c2ccc(OC)nn2)c(=O)n3Cc2c(F)cccc2F)cc1 [Compound 2A]
- Pituitary concentration ([1]; 1 h): 280 ± 80
- Plasma concentration ([1]; 1 h): 32.2 ± 18.0
- Pituitary concentration ([1]; 4 h): 279 ± 70
- Plasma concentration ([1]; 4 h): 13.3 ± 5.1
- Pituitary concentration ([1]; 12 h): 333 ± 90
- Plasma concentration ([1]; 12 h): 5.59 ± 1.55
- Kp at 1 h ([1]; male, Sprague-Dawley (SD), rat, pituitary/plasma, oral, 1 h): 8.7
- Kp at 4 h ([1]; male, Sprague-Dawley (SD), rat, pituitary/plasma, oral, 4 h): 21
- Kp at 12 h ([1]; male, Sprague-Dawley (SD), rat, pituitary/plasma, oral, 12 h): 59.6
- efflux ratio at 120 min ([2]; read-out: Efflux ratio): 1180
- Papp A→B at 120 min ([2]; Caco-2, 120 min incubation): 0.00816 ×10⁻⁶ cm/s
- Papp B→A at 120 min ([2]; Caco-2, 120 min incubation): 9.65 ×10⁻⁶ cm/s
- AUC(0-t) [3, 9]: 487 ± 150 ng·h/mL
- C0 [3, 9]: 521 ± 322 ng/mL
- MRT last [3, 9]: 4.14 ± 1.83 h
- half-life [3, 9]: 6.64 ± 3.1 h
- AUC(0-t) [3, 10]: 370 ± 109 ng·h/mL
- Cmax [3, 10]: 69.9 ± 15.1 ng/mL
- MRT last [3, 10]: 9.2 ± 2.3 h
- half-life [3, 10]: 18 ± 15.9 h
- bioavailability ([3]; male, Sprague-Dawley (SD), rat, plasma, po): 6.33%
- Tmax ([3]; male, Sprague-Dawley (SD), rat, plasma, po, i.g 12 mg/kg, read-out: Tmax): 0.25 h
- IC50 (human GnRHR [4]; read-out: Functional IC50): 1.84 nM
- IC90 (human GnRHR [4]; read-out: Functional IC90): 8.19 nM
- IC50 ([5]; CHO cells stably expressing human hERG potassium channel): 6070 nM
- Inhibitory activity on the human hERG potassium channel compared with Relugolix [5]: equal to or less than that of Relugolix
- IC90 (human GnRHR [6]): 13.2 nM
- IC50 (human GnRHR [6]; Chem-1 cell membranes, 0.05 nM [125I]-[D-Trp6]-LH-RH): 0.87 nM

SMILES: CCNC(=O)Nc1ccc(-c2sc3c(c2CN(C)C)c(=O)n(-c2ccc(OC)nn2)c(=O)n3Cc2c(F)cccc2F)cn1 [Compound 2]
- Pituitary concentration ([1]; 1 h): 2250 ± 474
- Pituitary/plasma ([1]; 1 h): 56.9
- Plasma concentration ([1]; 1 h): 39.5 ± 14.0
- Concentration in the pituitary relative to Relugolix ([1]; 1 h): 2.38 fold
- Concentration in the pituitary relative to compound 2A ([1]; 1 h): 8.04 fold
- Pituitary concentration ([1]; 4 h): 1841 ± 636
- Pituitary/plasma ([1]; 4 h): 80.8
- Plasma concentration ([1]; 4 h): 22.8 ± 2.5
- Concentration in the pituitary relative to Relugolix ([1]; 4 h): 1.48 fold
- Concentration in the pituitary relative to compound 2A ([1]; 4 h): 6.60 fold
- Pituitary concentration ([1]; 12 h): 1254 ± 494
- Pituitary/plasma ([1]; 12 h): 129
- Plasma concentration ([1]; 12 h): 9.70 ± 3.10
- Concentration in the pituitary relative to Relugolix ([1]; 12 h): 2.46 fold
- Concentration in the pituitary relative to compound 2A ([1]; 12 h): 3.77 fold
- efflux ratio at 120 min [2]: ~6
- Efflux ratio (Caco-2 cells; Caco-2): 294
- Mean Papp A to B (Caco-2 cells; Caco-2, 120 min incubation): 0.0142 10^−6 cm/s
- Mean Papp B to A (Caco-2 cells; Caco-2, 120 min incubation): 4.19 10^−6 cm/s
- AUClast relative to Relugolix [3, 11]: 2.45 fold
- Absolute bioavailability relative to Relugolix [3, 11]: 3.47 fold
- Cmax relative to Relugolix [3, 11]: 3.63 fold
- AUClast relative to compound 2A [3, 12]: 0.96 fold
- Absolute bioavailability relative to compound 2A [3, 12]: 3.14 fold
- Cmax relative to compound 2A [3, 12]: 1.12 fold
- bioavailability ([3]; male, rat, plasma, oral): 19.9%
- Inhibitory activity on the human hERG potassium channel compared with Relugolix [5]: equal to or less than that of Relugolix
- CLint scaled [7]: 4.86 mL/min/kg
- half-life [7]: 4.28 h
- Residual content at 60 min ([7]; NADPH, 37° C.): 83.8%
- microsomal CLint ([7]; read-out: CLint(mic)): 5.4 µL/min/mg
- Residual content at 60 min ([8]; NADPH, 37° C.): 61.0%
- CLint scaled ([8]; SD): 28.4 mL/min/kg
- half-life ([8]; SD): 1.46 h
- microsomal CLint ([8]; SD, read-out: CLint(mic)): 15.8 µL/min/mg

Source: patent publication US20250000864A1, “GONADOTROPIN-RELEASING HORMONE ANTAGONIST, AND PREPARATION METHOD THEREFOR AND USE THEREOF” (SHANDONG LUYE PHARMACEUTICAL CO., LTD., priority 2021, published 2025)
